Experimental data: Sander's compilation of Henry's law constants (doi:10.1002/jps.2600670510)

experiment: Henry solubility constant Hcp at 298.15 K (mol/(m3 Pa)); conditions: reference: Rytting et al. (1978)

Compound	Henry solubility constant Hcp
CCCCN [1-butanamine]	0.52
CCCCCCCN [1-heptanamine]	0.24
CCCCCCN [1-hexanamine]	0.32
CCCCCCCCN [1-octanamine]	0.19
CCCCCN [1-pentanamine]	0.4
CCCCCO [1-pentanol]	0.9
CCC(C)O (configuration not stated) [2-butanol]	0.98
CC(C)CO [2-methyl-1-propanol]	0.8
CCCCCCC [heptane]	4.8e-06
CCCCCC [hexane]	5.4e-06
CCCCCCCC [octane]	3.1e-06
CCCCC [pentane]	7.8e-06
